Ends that are not written are not given here.
What was measured:
A375 melanoma cells = assay: A375 melanoma cell adhesion to peptide-rsa coated surfaces; type: cell-based, human; conditions: FIG. 12, 5 ug/ml peptide, 30 min
Method: (§1) Adhesion of various hematopoetic cell lines to CS-1 (open bars; FIG. 12) or LDV minimal peptide-coated surfaces (cross-hatched bars; FIG. 12) was tested as follows: Jurkat (T lymphoblastoid), A375 (melanoma), U937 (monocytic), Ramos (B lymphoblastoid), and ST-1 (EBV transformed B lymphoblastoid) cells were allowed to adhere to CS-1-rsa or LDVPST-rsa (5 ug/ml peptide) coated surfaces for 30 min at 37° C. At the end of this time the non-adherent cells were washed off and the adherent cells were solubilized in NaOH/SDS and quantitated in a gamma counter. The results are expressed as bound counts per minute.

Jurkat cells = assay: Jurkat cell adhesion to surfaces coated with peptide-rsa conjugates; type: cell-based, human; conditions: Jurkat; FIG. 12; 5 ug/ml peptide; 30 min
Method: ^51Cr-labeled Jurkat cells ([…]) were incubated on surfaces coated with varying concentrations of peptide-rsa conjugates starting at 50 ug/ml (w/v) fragment or peptide (based on peptide not peptide-conjugate weight). […] (No adhesion=no measurable adhesion above negative controls.)
as §1

LDVPST-RSA: LDVPST conjugated to rabbit serum albumin (also: conjugated to rabbit serum albumin, site not given here)
Cell adhesion to conjugate-coated surfaces (A375 melanoma cells): adhered
Cell adhesion to conjugate-coated surfaces (Jurkat cells): only slightly
